Measured values from PubChem BioAssay AID330 (DTP/NCI, 2004).
Several values for one entry are separate records, joined by “and”; a condition that tells them apart may be missing. Equal entries are not always repeated. Inconclusive results and toxic doses are left out. How the source made its calls: active means survival T/C of 150% or more; inactive means T/C below 125% in these data. Peptide text beside a SMILES is read from it. * marks the point of attachment. Cbz = O=C(OCc1ccccc1)*

Tested on: P388 leukemia ip, CD2F1 mice, survival T/C
Experiment: NCI In Vivo Anticancer Drug Screen. Data for tumor model P388 Leukemia (intraperitoneal) in CD2F1 (CDF1) mice
Conditions: endpoint: median survival time, higher = longer survival
Procedure, shortened: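 Mice carrying the transplanted tumor received test compound or vehicle. Survival was recorded in each group, and the value is the treated-group measurement divided by that of the vehicle-treated control group.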

[1] = dose: 50.0 mg/kg/injection, schedule: Q01DX005 (ip), vehicle: Klucel (hydroxypropylcellulose) (HPC)
[2] = dose: 100.0 mg/kg/injection, schedule: Q01DX005 (ip), vehicle: Klucel (hydroxypropylcellulose) (HPC)
[3] = dose: 200.0 mg/kg/injection, schedule: Q01DX005 (ip), vehicle: Klucel (hydroxypropylcellulose) (HPC)
[4] = dose: 60.0 mg/kg/injection, schedule: Q01DX005 (ip), vehicle: saline with Tween-80
[5] = dose: 120.0 mg/kg/injection, schedule: Q01DX005 (ip), vehicle: saline with Tween-80
[6] = dose: 240.0 mg/kg/injection, schedule: Q01DX005 (ip), vehicle: saline with Tween-80
[7] = dose: 25.0 mg/kg/injection, schedule: Q01DX009 (ip), vehicle: Klucel (hydroxypropylcellulose) (HPC)
[8] = dose: 50.0 mg/kg/injection, schedule: Q01DX009 (ip), vehicle: Klucel (hydroxypropylcellulose) (HPC)
[9] = dose: 100.0 mg/kg/injection, schedule: Q01DX009 (ip), vehicle: saline with Tween-80
[10] = dose: 60.0 mg/kg/injection, schedule: Q01DX005 (ip), vehicle: Klucel (hydroxypropylcellulose) (HPC)
[11] = dose: 120.0 mg/kg/injection, schedule: Q01DX005 (ip), vehicle: Klucel (hydroxypropylcellulose) (HPC)
[12] = dose: 50.0 mg/kg/injection, schedule: Q01DX009 (ip), vehicle: saline
[13] = dose: 100.0 mg/kg/injection, schedule: Q01DX009 (ip), vehicle: saline
[14] = dose: 200.0 mg/kg/injection, schedule: Q01DX009 (ip), vehicle: saline
[15] = dose: 100.0 mg/kg/injection, schedule: Q04DX002 (ip), vehicle: saline with Tween-80
[16] = dose: 200.0 mg/kg/injection, schedule: Q04DX002 (ip), vehicle: saline with Tween-80
[17] = dose: 400.0 mg/kg/injection, schedule: Q04DX002 (ip), vehicle: saline with Tween-80

Measured: T/C

CCC(C)C(NC(=O)OCc1ccccc1)C(=O)NC(CCSC)C(=O)O (stereo not drawn) (Cbz-Ile-Met-OH; configuration not given here)
inactive: [1] 99 % of control | [2] 100 % of control | [3] 96 % of control

O=c1[nH]c2cc(Cl)ccc2nc1/C=C(\O)c1cccc2ccccc12
inactive: [4] 89 % of control | [5] 88 % of control | [6] 90 % of control

N=C(N)SCCSC(=N)N
inactive: dose: 25.0 mg/kg/injection, schedule: Q01DX009 (ip), vehicle: saline sonified 90 % of control | dose: 50.0 mg/kg/injection, schedule: Q01DX009 (ip), vehicle: saline sonified 109 % of control | dose: 100.0 mg/kg/injection, schedule: Q04DX002 (ip), vehicle: saline 100 % of control | dose: 200.0 mg/kg/injection, schedule: Q04DX002 (ip), vehicle: saline 100 % of control

O=c1ccc2ccccc2o1
inactive: dose: 3.12 mg/kg/injection, schedule: Q01DX009 (ip), vehicle: saline with Tween-80 101 % of control and 108 % of control and 94 % of control | dose: 6.25 mg/kg/injection, schedule: Q01DX009 (ip), vehicle: saline with Tween-80 100 % of control and 101 % of control and 110 % of control | dose: 12.5 mg/kg/injection, schedule: Q01DX009 (ip), vehicle: saline with Tween-80 103 % of control and 110 % of control (2×) | [7] 100 % of control and 105 % of control | dose: 25.0 mg/kg/injection, schedule: Q01DX009 (ip), vehicle: saline with Tween-80 100 % of control and 110 % of control and 120 % of control | dose: 25.0 mg/kg/injection, schedule: Q04HX002 (ip), vehicle: water 100 % of control | [8] 105 % of control and 106 % of control and 107 % of control | dose: 50.0 mg/kg/injection, schedule: Q04HX002 (ip), vehicle: water 104 % of control | dose: 100.0 mg/kg/injection, schedule: Q01DX009 (ip), vehicle: Klucel (hydroxypropylcellulose) (HPC) 102 % of control and 105 % of control and 108 % of control | [9] 103 % of control and 114 % of control | dose: 100.0 mg/kg/injection, schedule: Q04HX002 (ip), vehicle: saline with Tween-80 91 % of control | dose: 100.0 mg/kg/injection, schedule: Q04HX002 (ip), vehicle: water 100 % of control | dose: 200.0 mg/kg/injection, schedule: Q01DX009 (ip), vehicle: Klucel (hydroxypropylcellulose) (HPC) 119 % of control and 94 % of control | dose: 200.0 mg/kg/injection, schedule: Q04HX002 (ip), vehicle: saline with Tween-80 59 % of control | dose: 200.0 mg/kg/injection, schedule: Q04HX002 (ip), vehicle: water 101 % of control | dose: 400.0 mg/kg/injection, schedule: Q04HX002 (ip), vehicle: saline with Tween-80 46 % of control

COc1ccc(-n2c(=O)c(N=Nc3ccc(C)cc3)c(O)n(-c3ccccc3Cl)c2=S)cc1
inactive: dose: 50.0 mg/kg/injection, schedule: Q01DX001 (ip), vehicle: Klucel (hydroxypropylcellulose) (HPC) 96 % of control | dose: 100.0 mg/kg/injection, schedule: Q01DX001 (ip), vehicle: Klucel (hydroxypropylcellulose) (HPC) 99 % of control | dose: 200.0 mg/kg/injection, schedule: Q01DX001 (ip), vehicle: Klucel (hydroxypropylcellulose) (HPC) 96 % of control

CC1CC(C)CN(S(=O)(=O)c2cc(Cl)c(Oc3ccc([N+](=O)[O-])cc3Cl)c(Cl)c2)C1 (stereo not given)
inactive: [10] 101 % of control | [11] 100 % of control | dose: 240.0 mg/kg/injection, schedule: Q01DX005 (ip), vehicle: Klucel (hydroxypropylcellulose) (HPC) 110 % of control

O=C1CC2(CCCCC2)CC(=O)N1c1ccc(O)c(CN(Cc2ccccc2)Cc2ccccc2)c1
inactive: dose: 100.0 mg/kg/injection, schedule: Q04DX003 (ip), vehicle: Klucel (hydroxypropylcellulose) (HPC) 90 % of control | dose: 200.0 mg/kg/injection, schedule: Q04DX003 (ip), vehicle: Klucel (hydroxypropylcellulose) (HPC) 92 % of control | dose: 400.0 mg/kg/injection, schedule: Q04DX003 (ip), vehicle: Klucel (hydroxypropylcellulose) (HPC) 93 % of control

COc1cc2c(NCCCCCCO[N+](=O)[O-])ncnc2c(OC)c1OC
inactive: [1] 100 % of control | [2] 103 % of control | [3] 100 % of control

C=CCn1c(=O)oc2ccc(Cl)cc21
inactive: dose: 10.0 mg/kg/injection, schedule: Q01DX009 (ip), vehicle: saline with Tween-80 104 % of control | dose: 20.0 mg/kg/injection, schedule: Q01DX009 (ip), vehicle: saline with Tween-80 104 % of control | dose: 40.0 mg/kg/injection, schedule: Q01DX009 (ip), vehicle: saline with Tween-80 104 % of control

CCCCCCC(=O)CC(SCCO)c1ccc(Cl)c(Cl)c1 (stereo not given)
inactive: dose: 100.0 mg/kg/injection, schedule: Q04DX003 (ip), vehicle: suspension in saline 99 % of control | dose: 200.0 mg/kg/injection, schedule: Q04DX003 (ip), vehicle: suspension in saline 104 % of control | dose: 400.0 mg/kg/injection, schedule: Q04DX003 (ip), vehicle: suspension in saline 104 % of control

O=C1CSC(c2ccccc2Br)N1c1nncs1 (stereo not given)
inactive: [4] 101 % of control | [5] 97 % of control | [6] 93 % of control

CC1(C)CC(Nc2ncnc3c2ncn3C2OC(CO)C(O)C2O)CC(C)(C)N1O (stereo not given)
inactive: [12] 96 % of control | [13] 95 % of control | [14] 94 % of control

C(CCC1CO1)CC1CO1 (stereo not given)
inactive: dose: 100.0 mg/kg/injection, schedule: Q04DX002 (ip), vehicle: Klucel (hydroxypropylcellulose) (HPC) 122 % of control

O=[N+]([O-])c1cc(CNCCO)c(O)c2ncccc12
inactive: [4] 91 % of control | [5] 93 % of control | [6] 110 % of control

CCCCCC1CCCC2NC(=O)CCC12 (stereo not given)
inactive: [15] 104 % of control | [16] 97 % of control | [17] 89 % of control

CC1(C)Cc2[nH]c3ccccc3c2C(C)(C)N1
inactive: [4] 105 % of control and 99 % of control | [5] 100 % of control | [6] 91 % of control

CS(C)=C1C(=O)C(=O)C(=S(C)C)C(=O)C1=O
inactive: [4] 107 % of control | [5] 104 % of control | [6] 100 % of control

COc1cc2c(c(OC)c1OC)-c1cc3c(cc1C(OC1c4cc5c(cc4-c4c(cc(OC)c(OC)c4OC)CC4C(=O)OCC41)OCO5)C1COC(=O)C1C2)OCO3 (stereo not given)
inactive: dose: 2.5 mg/kg/injection, schedule: Q01DX005 (ip), vehicle: Klucel (hydroxypropylcellulose) (HPC) 109 % of control | dose: 5.0 mg/kg/injection, schedule: Q01DX005 (ip), vehicle: Klucel (hydroxypropylcellulose) (HPC) 98 % of control | dose: 10.0 mg/kg/injection, schedule: Q01DX005 (ip), vehicle: Klucel (hydroxypropylcellulose) (HPC) 92 % of control | dose: 20.0 mg/kg/injection, schedule: Q01DX005 (ip), vehicle: Klucel (hydroxypropylcellulose) (HPC) 109 % of control

CCOC(=O)Nc1nc2c(SC#N)cc(C)cc2s1
inactive: dose: 12.5 mg/kg/injection, schedule: Q01DX009 (ip), vehicle: Klucel (hydroxypropylcellulose) (HPC) 103 % of control | [7] 96 % of control | [8] 88 % of control and 96 % of control

OCc1cc2ccccc2c2c1OCCOCCOCCOCCOCCOc1ccc3ccccc3c1-2
inactive: [15] 104 % of control | [16] 99 % of control | [17] 107 % of control

CCc1ccccc1NC(=O)C(=O)CC(=O)C1=C(C)Nc2ccccc2S1
inactive: [4] 90 % of control | [5] 96 % of control | [6] 99 % of control

CC(=O)Oc1ccccc1C#CC(=O)O
inactive: dose: 50.0 mg/kg/injection, schedule: Q01DX009 (ip), vehicle: saline with Tween-80 96 % of control | [9] 90 % of control | dose: 200.0 mg/kg/injection, schedule: Q01DX009 (ip), vehicle: saline with Tween-80 94 % of control

COc1ccc(CCN=C(C)c2cc(Cl)cc(Cl)c2O)cc1OC
inactive: [1] 104 % of control | [2] 102 % of control | [3] 95 % of control

COC(C(=O)CN(C)C)(c1ccccc1)c1ccccc1
inactive: dose: 60.0 mg/kg/injection, schedule: Q01DX005 (ip), vehicle: saline 107 % of control | dose: 120.0 mg/kg/injection, schedule: Q01DX005 (ip), vehicle: saline 99 % of control | dose: 240.0 mg/kg/injection, schedule: Q01DX005 (ip), vehicle: saline 105 % of control

Cc1ccc2c(c1)C(=O)C(CN1CCN(C)CC1)CO2 (stereo not given)
inactive: [12] 106 % of control | [13] 109 % of control | [14] 99 % of control

CN1/C(=C/C2=C([O-])C(=C/C3=[N+](C)c4ccccc4C3(C)C)/C2=O)C(C)(C)c2ccccc21
inactive: [10] 91 % of control | [11] 87 % of control
